Tested on: Tetranychus cinnabarinus
Experiment: acaricidal activity test, spraying kidney bean seedlings inoculated with mites
Type: in vivo
Conditions: sprayed on kidney bean seedlings, living mites counted after 72 hours, 25° C.
Procedure: This test example tested the acaricidal activity of the compounds prepared above, in particular against Tetranychus cinnabarinus, and a specific test process was as follows: • (1) compounds to be tested were dissolved with acetone, and the resulting solution was diluted with a 0.1 wt % Tween 80 aqueous solution to a desired concentration (see test examples 1-A to 1-D below in detail) to prepare medicaments, with the acetone content of not more than 5 wt %; • (2) one real leaf was removed from kidney bean seedlings grown to two real leaves, and the number of mites inoculated was investigated 24 hours after inoculation of Tetranychus cinnabarinus (the number of Tetranychus cinnabarinus inoculated for each kidney bean seedling was 50-150). The whole plants of three kidney bean seedlings were separately sprayed with the medicaments prepared in the step (1) by using a hand-held sprayer (the spray amount was 0.5 mL per plant). After the treatment, the kidney bean seedlings were placed in a constant temperature observation room (25° C.) for observation, the number of living mites was investigated after 72 hours, and the lethality was calculated: Lethality (%)=(the number of mites inoculated−the number of living mites after the medicaments are sprayed)/the number of mites inoculated×100.

Row | SMILES | Lethality (6.25 mg/L) [%] | Lethality (25 mg/L) [%] | Lethality (100 mg/L) [%]
1 | CCS(=O)(=O)n1c(-c2ccc(F)c(C(F)(F)F)c2)nc2ccccc21 [Compound 1-27] | 90 | 100 | 100
2 | CCS(=O)(=O)n1c(-c2ccc(Cl)c(C(F)(F)F)c2)nc2ccccc21 [Compound 1-28] | 97 | 100 | 100
3 | CCS(=O)(=O)n1c(-c2cc(C(F)(F)F)cc(C(F)(F)F)c2)nc2ccccc21 [Compound 1-47] | 99 | 100 | 100
4 | CCS(=O)(=O)n1c(-c2ccc(F)c(C(F)(F)F)c2)nc2cc(F)c(F)cc21 [Compound 1-56] | 95 | 100 | 100
5 | CCS(=O)(=O)n1c(-c2ccc(Cl)c(C(F)(F)F)c2)nc2cc(F)c(F)cc21 [Compound 1-57] | 92 | 100 | 100
6 | CS(=O)(=O)n1c(-c2cc(Cl)cc(C(F)(F)F)c2)nc2ccccc21 [Compound 1-133] | 99 | 100 | 100
7 | CCS(=O)(=O)n1c(-c2cc(F)cc(C(F)(F)F)c2)nc2ccccc21 [Compound 1-174] | 98 | 98 | 100
8 | CCS(=O)(=O)n1c(-c2cc(Br)cc(OC(F)(F)F)c2)nc2ccccc21 [Compound 1-186] | 100 | 100 | 100
9 | CCS(=O)(=O)n1c(-c2cc(Cl)cc(C(F)(F)F)c2)nc2ccccc21 [Compound 1-213] | 99 | 100 | 100
10 | CCS(=O)(=O)n1c(-c2cc(Br)cc(C(F)(F)F)c2)nc2ccccc21 [Compound 1-214] | 97 | 100 | 100
11 | CCS(=O)(=O)n1c(-c2cc(C#N)cc(C(F)(F)F)c2)nc2ccccc21 [Compound 1-218] | 98 | 99 | 100
12 | CCS(=O)(=O)n1c(-c2cc([N+](=O)[O-])cc(C(F)(F)F)c2)nc2ccccc21 [Compound 1-235] | 99 | 99 | 100
13 | CCS(=O)(=O)n1c(-c2cc(Cl)cc(OC(F)(F)F)c2)nc2ccccc21 [Compound 1-239] | 100 | 100 | 100
14 | CCCS(=O)(=O)n1c(-c2cc(C(F)(F)F)cc(C(F)(F)F)c2)nc2ccccc21 [Compound 1-254] | 97 | 100 | 100
15 | CCCCS(=O)(=O)n1c(-c2cc(C(F)(F)F)cc(C(F)(F)F)c2)nc2ccccc21 [Compound 1-255] | 91 | 100 | 100
16 | CCS(=O)(=O)n1c(-c2cc(C(F)(F)F)cc(C(F)(F)F)c2)nc2cc(F)c(F)cc21 [Compound 1-257] | 98 | 100 | 100
17 | CCS(=O)(=O)n1c(-c2cc(C(F)(F)F)cc(C(F)(F)F)c2)nc2cc(Cl)c(Cl)cc21 [Compound 1-265] | 100 | 100 | 100
18 | CCS(=O)(=O)n1c(-c2ccccc2)nc2ccccc21 [KC1, reference compound] | – | 52 | 82
19 | CCS(=O)(=O)n1c(-c2ccccc2F)nc2ccccc21 [KC2, reference compound] | – | 49 | 98
20 | CCS(=O)(=O)n1c(-c2ccccc2Cl)nc2ccccc21 [KC3, reference compound] | – | 70 | 88
21 | CCS(=O)(=O)n1c(-c2ccc(Cl)cc2)nc2ccccc21 [KC4, reference compound] | – | 57 | 37
22 | CCS(=O)(=O)n1c(-c2ccc(F)cc2)nc2ccccc21 [KC5, reference compound] | – | 40 | 66
23 | CCS(=O)(=O)n1c(-c2cc(Cl)cc(Cl)c2)nc2ccccc21 [KC6, reference compound] | – | 86 | 100

Reference: US20240298643A1, “BENZIMIDAZOLE COMPOUND OR SALT THEREOF, PREPARATION METHOD THEREFOR AND USE THEREOF, AND INSECTICIDE AND ACARICIDE AND USE THEREOF” (QINGDAO KANGQIAO PESTICIDES AND CHEMICALS GROUP CO., LTD., priority 2021, published 2024)
